The source of these data is patent US9193697B2, “Oxazole derivatives useful as modulators of FAAH” (MERCK SHARP & DOHME CORP., priority 2010, dated 2015).

As usually defined, the IC50 is the concentration that inhibits the measured activity by half. A low value points to greater potency.

For assay [1], the target named is T1, human FAAH (Fatty Acid Amide Hydrolase) (Homo sapiens (Human), UniProt O00519). Description: FAAH inhibition, human FAAH CHO whole cell format. The class given is cell-based. The source says:
(§1) To assist in assay development stable cell lines for human, murine and rat full length FAAH were developed. […] The full length FAAH was subcloned into the mammalian expression vector, pcDEF.neo, using XbaI and EcoRI restriction sites and used for stable cell line generation.
(§2) The full length murine FAAH was subcloned into the mammalian expression vector, pcDEFneo using either EcoRI (murine) or KpnI and EcoRI (rat) restriction sites. Chinese hamster ovary cells (CHO) were transfected following manufacturers protocol (AMAXA). Forty eight hours post transfection, cells were trypsinized and transferred to 96 well plates in Iscove's DMEM media supplemented with 2 mM Glutamine, 10% fetal calf serum, 1 mg/ml geneticin and HT Supplement (0.1 mM sodium hypoxanthine, 0.016 mM thymidine) in order to isolate single clones. […] Following removal of tissue culture media cells were dislodged following addition of Cellstripper (Mediatech, Inc. Manassas, Va.) and transferred to 96 well black clear bottom assay plate, centrifuged at 1,000 rpm for 3 mins and media removed and replaced with assay buffer (50 mM Tris pH8.0, 1 mM EDTA, 0.1% fatty acid free BSA). The reaction was initiated by addition of fluorescent substrate, AMC Arachidonoyl Amide (Cayman Chemical, Ann Arbor, Mich.) to 1 μM and reaction allowed to proceed for 2 hours at room temperature. Release of fluorescence was monitored in a CytoFluor Multiplate Reader.
(§3) Assays are performed on either cell lysate or microsome fractions prepared as described or in whole cell format employing either the fluorescent substrate AAMCA (Cayman chemical, Ann Arbor, Mich.,) or ^3H-anandamide ([ETHANOLAMINE-1-3H] American Radiolabeled Chemicals; 1 mCi/ml). […] AAMCA substrate was used to achieve a final concentration of 1 μM and reaction allowed to proceed at room temperature for 1-3 hours. […] Whole cell assay is conducted with cells harvested after rinsing tissue culture flasks three times with Ca^++Mg^++ free PBS, incubating for 10 min in Enzyme free dissociation media and centrifuging for 5 minutes at 1,000 rpm in table top centrifuge. Cells are resuspended in assay buffer at desired cell number in (4×10^4 cells/assay in 96-well format; 1×10^4 cells/assay in 384-well format) and assayed as described.

The target of assay [2] is T1, human FAAH (Fatty Acid Amide Hydrolase). Description: FAAH inhibition, human FAAH CHO cell lysate (AAMCA fluorescence). Type of assay: biochemical.
From the text: as §1, §2
CHO cells expressing FAAH were used to prepare either crude cell lysate or microsome fractions. To harvest cells, tissue culture media was decanted, the monolayer washed three times with Ca^++Mg^++ free PBS and cells recovered after 15 min in enzyme free dissociation media (Millipore Corp, Billerica, Mass.). Cells were collected by centrifuging at 2000 rpm for 15 min, and the cell pellet re-suspended with 50 mM HEPES (pH 7.4) containing 1 mM EDTA and the protease inhibitors aprotinin (1 mg/ml) and leupeptin (100 μM). The suspension was sonicated at 4° C. and the cell lysate recovered after centrifuging at 12,000×g (14,600 rpm, SS34 rotor) for 20 min at 4° C. to form a crude pellet of cell debris, nuclei, peroxisomes, lysosomes, and mitochondria; the supernatant or cell lysate was used for FAAH enzyme assay. In some eases, microsomes fractions enriched in FAAH were prepared by centrifuging the cell lysate further at 27,000 rpm (100,000×g) in SW28 rotor for 50 minutes at 4° C. The pellet containing FAAH-enriched microsomes was re-suspend in 50 mM HEPES, (pH 7.4) 1 mM EDTA, and any remaining DNA sheared by passage of material through a 23 gauge needle and aliquots of enzyme were store at −80° C. prior to use.
as §3
Alternatively, assays are performed using anandamide [ethanolamine 1-^3H] (specific activity of 10 Ci/mmol) diluted with cold anandamide to achieve a final assay concentration of 1 μM anandamide (˜50,000 cpm). Enzyme (CHO cell lysate, brain or liver homogenate) is incubated in assay buffer (50 mM Phosphate, pH 8.0, 1 mM EDTA, 200 mM KCl, 0.2% glycerol, 0.1% fatty acid free BSA) with inhibitor at 25° C. for 30 minutes.

T1 sequence (O00519 whole entry): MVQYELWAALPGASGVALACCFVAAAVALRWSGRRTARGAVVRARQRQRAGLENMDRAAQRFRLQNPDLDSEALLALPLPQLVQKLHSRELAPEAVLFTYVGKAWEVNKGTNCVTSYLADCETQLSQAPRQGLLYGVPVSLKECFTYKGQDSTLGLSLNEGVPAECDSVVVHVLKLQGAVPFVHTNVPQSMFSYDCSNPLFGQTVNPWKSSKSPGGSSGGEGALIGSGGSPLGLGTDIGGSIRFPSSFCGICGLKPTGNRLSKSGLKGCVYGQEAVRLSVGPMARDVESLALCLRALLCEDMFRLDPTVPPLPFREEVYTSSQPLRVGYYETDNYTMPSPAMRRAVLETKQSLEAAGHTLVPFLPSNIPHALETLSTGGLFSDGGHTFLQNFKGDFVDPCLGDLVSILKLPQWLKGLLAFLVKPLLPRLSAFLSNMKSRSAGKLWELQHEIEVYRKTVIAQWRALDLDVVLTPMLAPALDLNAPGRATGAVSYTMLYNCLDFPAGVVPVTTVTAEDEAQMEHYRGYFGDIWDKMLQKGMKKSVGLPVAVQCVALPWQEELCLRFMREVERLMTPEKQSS

Consider `C[S+]([O-])c1ccc(-c2nc(C3=CCOCC3)oc2Sc2ccc(Cl)cc2)cc1` (centres unmarked) [Example C6.3, 5-[(4-chlorophenyl)sulfanyl]-2-(3,6-dihydro-2H-pyran-4-yl)-4-[4-(methylsulfinyl)phenyl]-1,3-oxazole], for which the IC50 in assay [1] came out at 31 nM; in assay [2], 15.9 nM. Taken in the same sequence, the figures for `C[S+]([O-])c1ccc(-c2nc(C3CCN(S(C)(=O)=O)CC3)oc2Sc2ccc(Cl)cn2)cc1` (centres unmarked) [Example A7.19, 5-chloro-2-({4-[4-(methylsulfinyl)phenyl]-2-[1-(methylsulfonyl)piperidin-4-yl]-1,3-oxazol-5-yl}sulfanyl)pyridine] were 3280 nM and 287 nM. Taken in the same sequence, the figures for `Clc1ccc(Sc2oc(C3CCOCC3)nc2-c2cnc3[nH]ncc3c2)cc1` [Example B5.10, 5-{5-[(4-chlorophenyl)sulfanyl]-2-(tetrahydro-2H-pyran-4-yl)-1,3-oxazol-4-yl}-1H-pyrazolo[3,4-b]pyridine] were 98.1 nM and 67.6 nM. Turning to `CS(=O)(=O)c1ccc(-c2nc(C3CCNCC3)oc2Sc2ccc(Cl)cn2)cc1` [Example A7.16, 5-chloro-2-({4-[4-(methylsulfonyl)phenyl]-2-(piperidin-4-yl)-1,3-oxazol-5-yl}sulfanyl)pyridine], the half-inhibitory concentration (IC50) is not below 10000 nM in assay [1] and 925 nM in assay [2]. Taken in the same sequence, the figures for `Clc1ccc(Sc2oc(C3CCOCC3)nc2-c2cnc3cc[nH]c3c2)cc1` [Example B5.12, 6-{5-[(4-chlorophenyl)sulfanyl]-2-(tetrahydro-2H-pyran-4-yl)-1,3-oxazol-4-yl}-1H-pyrrolo[3,2-b]pyridine] were 279 nM and 113 nM.

As for `CCOC(=O)N1CCC(c2nc(-c3ccc([S+](C)[O-])cc3)c(Sc3ccc(Cl)cn3)o2)CC1` (centres unmarked) [Example A7.23, ethyl 4-{5-[(5-chloropyridin-2-yl)sulfanyl]-4-[4-(methylsulfinyl)phenyl]-1,3-oxazol-2-yl}piperidine-1-carboxylate], the figures for the IC50 in assay [1] and in assay [2] were 436 nM and 61.7 nM, respectively. Take `Clc1ccc(Sc2oc(C3CCOCC3)nc2C2CCNCC2)nc1` [Example A7.31, 5-chloro-2-{[4-(piperidin-4-yl)-2-(tetrahydro-2H-pyran-4-yl)-1,3-oxazol-5-yl]sulfanyl}pyridine]: the results for the IC50 in assay [1] and in assay [2] were not below 10000 nM and 10000 nM, respectively. Taken in the same sequence, the figures for `COC(=O)Cn1cc(-c2nc(C3CCOCC3)oc2Sc2ccc(Cl)cc2)cn1` [Example B5.13, methyl (4-{5-[(4-chlorophenyl)sulfanyl]-2-(tetrahydro-2H-pyran-4-yl)-1,3-oxazol-4-yl}-1H-pyrazol-1-yl)acetate] were 847 nM and 320 nM. Taken in the same sequence, the figures for `C[S+]([O-])c1ccc(-c2nc(C3CCN(C(=O)OC(C)(C)C)CC3)oc2Sc2ccc(Cl)cn2)cc1` (centres unmarked) [Example A7.13, tert-butyl 4-{5-[(5-chloropyridin-2-yl)sulfanyl]-4-[4-(methylsulfinyl)phenyl]-1,3-oxazol-2-yl}piperidine-1-carboxylate] were 771 nM and 67.5 nM.

Consider `O=C(c1ccc(-c2nc(C3CCOCC3)oc2Sc2ccc(Cl)cc2)cc1)N1CCSC1` [Example B5.31, (4-{5-{(4-chlorophenyl)sulfanyl]-2-(tetrahydro-2H-pyran-4-yl)-1,3-oxazol-4-yl}phenyl)(1,3-thiazolidin-3-yl)methanone], for which, in assay [1], it took 1340 nM to reach half-maximal inhibition (IC50).

In the case of `COc1ccc(Sc2oc(C3CCOCC3)nc2-c2ccc(C(C)(C)O)nc2)nc1` [Example A7.4, 2-(5-{5-[(5-methoxypyridin-2-yl)sulfanyl]-2-(tetrahydro-2H-pyran-4-yl)-1,3-oxazol-4-yl}pyridin-2-yl)propan-2-ol], in assay [1], inhibition was half-maximal at 454 nM (IC50). Against the preceding compound, the IC50 is about 3-fold lower. Same read-out and setting: for `CC(=O)N1CCC(c2nc(C3CCOCC3)oc2Sc2ccc(Cl)cn2)CC1` [Example A7.33, 1-(4-{5-[(5-chloropyridin-2-yl)sulfanyl]-2-(tetrahydro-2H-pyran-4-yl)-1,3-oxazol-4-yl}piperidin-1-yl)ethanone] the value was 1810 nM; for `COC(=O)[C@H]1CC[C@H](c2nc(-c3ccc(C(C)(C)O)nc3)c(Sc3ccc(Cl)cc3)o2)CC1` [Example B5.33, methyl trans-4-{5-[(4-chlorophenyl)sulfanyl]-4-[6-(2-hydroxypropan-2-yl)pyridin-3-yl]-1,3-oxazol-2-yl}cyclohexanecarboxylate], 9.5 nM; for `COCCOC(=O)N1CCC(c2nc(C3CCOCC3)oc2Sc2ccc(Cl)cn2)CC1` [Example A7.38], not below 10000 nM. Still for that read-out and setting: then `O=C(OCc1ccccc1)N1CCC(c2nc(C3CCOCC3)oc2Sc2ccc(Cl)cn2)CC1` [Example A7.35, benzyl 4-{5-[(5-chloropyridin-2-yl)sulfanyl]-2-(tetrahydro-2H-pyran-4-yl)-1,3-oxazol-4-yl}piperidine-1-carboxylate], with not below 10000 nM; and `CC(C)(O)c1ccc(-c2nc([C@H]3CC[C@H](CO)CC3)oc2Sc2ccc(Cl)cc2)cn1` [Example B5.35, 2-(5-{5-[(4-chlorophenyl)sulfanyl]-2-[trans-4-(hydroxymethyl)cyclohexyl]-1,3-oxazol-4-yl}pyridin-2-yl)propan-2-ol], with 9.06 nM.

`O=S1(=O)CCN(c2ccc(-c3nc(C4CCOCC4)oc3Sc3ccc(Cl)cc3)cc2)CC1` [Example B5.22, 4-(4-{5-[(4-chlorophenyl)sulfanyl]-2-(tetrahydro-2H-pyran-4-yl)-1,3-oxazol-4-yl}phenyl)thiomorpholine 1,1-dioxide] returned an IC50 in assay [1] of 40.3 nM. Against the preceding compound, the IC50 is about 4.4-fold higher. The same measure, in the same setting: for `CN(C(=O)c1ccc(-c2nc(C3CCOCC3)oc2Sc2ccc(Cl)cc2)cc1)C1CCOC1` (centres unmarked) [Example B5.26, 4-{5-[(4-chlorophenyl)sulfanyl]-2-(tetrahydro-2H-pyran-4-yl)-1,3-oxazol-4-yl}-N-methyl-N-(tetrahydrofuran-3-yl)benzamide] the value was 506 nM; for `O=C(c1ccc(-c2nc(C3CCOCC3)oc2Sc2ccc(Cl)cc2)cc1)N1CCOC1` [Example B5.20, (4-{5-[(4-chlorophenyl)sulfanyl]-2-(tetrahydro-2H-pyran-4-yl)-1,3-oxazol-4-yl}phenyl)(1,3-oxazolidin-3-yl)methanone], 383 nM; for `CN1CCN(CCOC(=O)N2CCC(c3nc(-c4ccc([S+](C)[O-])cc4)c(Sc4ccc(Cl)cn4)o3)CC2)CC1` (centres unmarked) [Example A7.28, 2-(4-methylpiperazin-1-yl)ethyl 4-{5-[(5-chloropyridin-2-yl)sulfanyl]-4-[4-(methylsulfinyl)phenyl]-1,3-oxazol-2-yl}piperidine-1-carboxylate], not below 10000 nM. With `O=C(c1ccc(-c2nc(C3CCOCC3)oc2Sc2ccc(Cl)cc2)cc1)N1CC2CC1CO2` (centres unmarked) [Example B5.18, (4-{5-[(4-chlorophenyl)sulfanyl]-2-(tetrahydro-2H-pyran-4-yl)-1,3-oxazol-4-yl}phenyl)(2-oxa-5-azabicyclo[2.2.1]hept-5-yl)methanone], inhibition in assay [1] was half-maximal at 375 nM (IC50). The same measure, in the same setting: for `Clc1ccc(Sc2oc(C3CCOCC3)nc2-c2ccc3nncn3c2)cc1` [Example B5.23, 6-{5-[(4-chlorophenyl)sulfanyl]-2-(tetrahydro-2H-pyran-4-yl)-1,3-oxazol-4-yl}[1,2,4]triazolo[4,3-a]pyridine] the value was 774 nM.

For `COc1ccc(OC(=O)N2CCC(c3nc(C4CCOCC4)oc3Sc3ccc(Cl)cn3)CC2)cc1` [Example A7.39, 4-methoxyphenyl 4-{5-[(5-chloropyridin-2-yl)sulfanyl]-2-(tetrahydro-2H-pyran-4-yl)-1,3-oxazol-4-yl}piperidine-1-carboxylate], the 50% inhibitory concentration (IC50) in assay [1] worked out at 2810 nM.
